The text below walks through data of patent US12673954B2 (BRISTOL-MYERS SQUIBB COMPANY, priority 2021, dated 2026).

Read-outs that look alike come from different tables or passages of the source.

The subject of experiment [1] is IRF pathway, THP1-Dual™ cells. As to the kind of experiment: STING reporter assay in THP1-Dual cells, IRF pathway (Lucia luciferase, QUANTI-Luc). The note with it: THP1-Dual cells, 10% human plasma, 20 hours, Lucia luciferase, 100% activation = 100 μM cGAMP, read-out: IRF (EC50 μM). Type of experiment: cell-based, human. In short, it runs like this:
(§1)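 Activation normalised between DMSO-only baseline and 100 μM cGAMP maximum, after 20 h compound exposure (starting at 100 μM final) at 37° C, 5% CO2. Supernatant SEAP (QUANTI-Blue, OD620) reports NF-κB; secreted luciferase (QUANTI-Luc, RLU at 5 min) reports IRF.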
For orientation: A reporter such as luciferase makes a cellular process visible.

Experiment [2] relates to NF-κB pathway, THP1-Dual™ cells. As to the kind of experiment: STING reporter assay in THP1-Dual cells, NF-κB pathway (SEAP, QUANTI-Blue). Type of experiment: cell-based, human. The note with it: THP1-Dual cells, 10% human plasma, 20 hours, SEAP, 100% activation = 100 μM cGAMP, read-out: NFkB (EC50 μM). In short, it runs like this: as §1

For the molecule `CC(OC(=O)c1cc(Cl)cc2cc(CNC(=O)c3cnn4cccnc34)oc12)C(F)(F)F` (single isomer, unassigned) [EXAMPLE 329, 1,1,1-Trifluoropropan-2-yl 5-chloro-2-((pyrazolo[1,5-a]pyrimidine-3-carboxamido)methyl)benzofuran-7-carboxylate], the half-maximal effective concentration (EC50) – broadly, the midpoint of the concentration-response curve – in experiment [1] was found to be 0.88 µM; in experiment [2] it was 0.89 µM.

As to `Cc1cc(C(=O)O[C@@H](C)C(F)(F)F)c2oc(C(C)NC(=O)c3cnn4cccnc34)cc2c1` (stereo partly drawn) [EXAMPLE 277, (S)-1,1,1-Trifluoropropan-2-yl 5-methyl-2-(1-(pyrazolo[1,5-a]pyrimidine-3-carboxamido)ethyl)benzofuran-7-carboxylate], the EC50 came out at 13 µM in experiment [1] (Homo sapiens, THP1-Dual, 20 h) and 16 µM in experiment [2] (Homo sapiens, THP1-Dual, 20 h).

Regarding `CC(NC(=O)c1cnn2cccnc12)c1cc2cc(F)cc(C(=O)OCC(F)(F)F)c2o1` (single isomer, unassigned) [EXAMPLE 328, 2,2,2-Trifluoroethyl 5-fluoro-2-(1-(pyrazolo[1,5-a]pyrimidine-3-carboxamido)ethyl)benzofuran-7-carboxylate], the figures for the EC50 in experiment [1] and in experiment [2] were 1.3 µM and 1.5 µM, respectively.

Turning to `CC(OC(=O)c1cc(F)cc2cc(CNC(=O)c3cnn4cccnc34)oc12)C(F)(F)F` (single isomer, unassigned) [EXAMPLE 318, 1,1,1-Trifluoropropan-2-yl 5-fluoro-2-((pyrazolo[1,5-a]pyrimidine-3-carboxamido)methyl)benzofuran-7-carboxylate], the EC50 was found to be 4.3 µM in experiment [1] and 4.5 µM in experiment [2].

In the case of `O=C(OC1CC(c2ccc(F)cc2)C1)c1cc(Cl)cc2cc(CNC(=O)c3cnn4cccnc34)oc12` (single isomer, unassigned) [EXAMPLE 333, 3-(4-Fluorophenyl)cyclobutyl 5-chloro-2-((pyrazolo[1,5-a]pyrimidine-3-carboxamido)methyl)benzofuran-7-carboxylate], the EC50 is 11 µM in experiment [1] (Homo sapiens, THP1-Dual, 20 h) and 12 µM in experiment [2] (Homo sapiens, THP1-Dual, 20 h).

In the case of `CC(F)(F)COC(=O)c1cccc2cc(CN3CCc4ccncc4C3=O)oc12` [EXAMPLE 212, 2,2-Difluoropropyl 2-((1-oxo-3,4-dihydro-2,7-naphthyridin-2(1H)-yl)methyl)benzofuran-7-carboxylate], the EC50 in experiment [1] (Homo sapiens, THP1-Dual, 20 h) is 52 µM; in experiment [2] (Homo sapiens, THP1-Dual, 20 h), 58 µM.

For the molecule `O=C(OCC(F)(F)F)c1cc(Cl)cc2c(Cl)c(CNC(=O)c3cnn4cccnc34)oc12` [EXAMPLE 294, 2,2,2-Trifluoroethyl 3,5-dichloro-2-((pyrazolo[1,5-a]pyrimidine-3-carboxamido)methyl)benzofuran-7-carboxylate], the EC50 amounted to 0.8 µM in experiment [1] (Homo sapiens, THP1-Dual, 20 h) and 0.93 µM in experiment [2] (Homo sapiens, THP1-Dual, 20 h).

Consider `CC(NC(=O)c1cnn2cccnc12)c1cc2cc(F)cc(C(=O)OC3CC(F)(F)C3)c2o1` (centres unmarked) [EXAMPLE 306, 3,3-Difluorocyclobutyl 5-fluoro-2-(1-(pyrazolo[1,5-a]pyrimidine-3-carboxamido)ethyl)benzofuran-7-carboxylate], for which the EC50 in experiment [1] (Homo sapiens, THP1-Dual, 20 h) is 1.3 µM; in experiment [2] (Homo sapiens, THP1-Dual, 20 h), 1.3 µM.

Take `COC(=O)c1cc(C)cc2c(C(F)(F)F)c(CNC(=O)c3cnn4cccnc34)oc12` [EXAMPLE 123, Methyl 5-methyl-2-((pyrazolo[1,5-a]pyrimidine-3-carboxamido)methyl)-3-(trifluoromethyl)benzofuran-7-carboxylate]: the EC50 in experiment [1] (Homo sapiens, THP1-Dual, 20 h) was 4.3 µM; in experiment [2] (Homo sapiens, THP1-Dual, 20 h), 5.9 µM.

With `COC(=O)c1cc(C2CC2)cc2cc(CNC(=O)c3cnn4cccnc34)oc12` [Example 99, Methyl 5-cyclopropyl-2-((pyrazolo[1,5-a]pyrimidine-3-carboxamido)methyl)benzofuran-7-carboxylate], the half-maximal effective concentration (EC50) turned out to be 17 µM in experiment [1] (Homo sapiens, THP1-Dual, 20 h) and 12 µM in experiment [2] (Homo sapiens, THP1-Dual, 20 h).

For the molecule `C[C@H](NC(=O)c1cnn2cccnc12)c1cc2cc(Cl)cc(C(=O)OC3CC(F)(F)C3)c2o1` [EXAMPLE 267, 3,3-Difluorocyclobutyl (S)-5-chloro-2-(1-(pyrazolo[1,5-a]pyrimidine-3-carboxamido)ethyl)benzofuran-7-carboxylate], the EC50 in experiment [1] (Homo sapiens, THP1-Dual, 20 h) was found to be 5.8 µM; in experiment [2] (Homo sapiens, THP1-Dual, 20 h), 6.6 µM.

In the case of `COC(OC(=O)c1cc(C#N)cc2cc(CNC(=O)c3cnn4cccnc34)oc12)C(F)(F)F` (single isomer, unassigned) [EXAMPLE 348, 2,2,2-Trifluoro-1-methoxyethyl 5-cyano-2-((pyrazolo[1,5-a]pyrimidine-3-carboxamido)methyl)benzofuran-7-carboxylate], the concentration giving a half-maximal response (EC50) in experiment [1] was 5.6 µM; in experiment [2] it was 3.9 µM.

With `CSC(=O)c1cc(Cl)cc2cc(CNC(=O)c3cnn4cccnc34)oc12` [EXAMPLE 395], the EC50 is 2.1 µM in experiment [1] (Homo sapiens, THP1-Dual, 20 h) and 1.9 µM in experiment [2] (Homo sapiens, THP1-Dual, 20 h).

Regarding `O=C(OCC(F)(F)F)c1ccc(Cl)c2cc(CNC(=O)c3cnn4cccnc34)oc12` [EXAMPLE 357, 2,2,2-Trifluoroethyl 4-chloro-2-((pyrazolo[1,5-a]pyrimidine-3-carboxamido)methyl)benzofuran-7-carboxylate], the EC50 in experiment [1] (Homo sapiens, THP1-Dual, 20 h) is 0.9 µM; in experiment [2] (Homo sapiens, THP1-Dual, 20 h) it was 1 µM.

On to `COC(OC(=O)c1cc(C)cc2cc(CNC(=O)c3cnn4cccnc34)oc12)C(F)(F)F` (single isomer, unassigned) [EXAMPLE 344, 2,2,2-Trifluoro-1-methoxyethyl 5-methyl-2-((pyrazolo[1,5-a]pyrimidine-3-carboxamido)methyl)benzofuran-7-carboxylate], for which the results for the EC50 in experiment [1] and in experiment [2] were 0.63 µM and 0.76 µM, respectively.

`CSC(=O)c1cc(F)cc2cc(CNC(=O)c3cnccn3)oc12` [EXAMPLE 384, S-Methyl 5-fluoro-2-((pyrazine-2-carboxamido)methyl)benzofuran-7-carbothioate]: the 50% effective concentration (EC50) in experiment [1] (Homo sapiens, THP1-Dual, 20 h) was 3.2 µM; in experiment [2] (Homo sapiens, THP1-Dual, 20 h) it was 3 µM.

For `O=C(OC1CC(F)(F)C1)c1cc(Cl)cc2cc(CNC(=O)c3cnn4cccnc34)oc12` [EXAMPLE 245, 3,3-Difluorocyclobutyl 5-chloro-2-((pyrazolo[1,5-a]pyrimidine-3-carboxamido)methyl)benzofuran-7-carboxylate], the EC50 came to 1.8 µM in experiment [1] (Homo sapiens, THP1-Dual, 20 h) and 1 µM in experiment [2] (Homo sapiens, THP1-Dual, 20 h).

As for `Cc1cc(C(=O)SCC(F)(F)F)c2oc(CNC(=O)c3cnn4cccnc34)cc2c1` [EXAMPLE 389, S-(2,2,2-Trifluoroethyl) 5-methyl-2-((pyrazolo[1,5-a]pyrimidine-3-carboxamido)methyl)benzofuran-7-carbothioate], the EC50 in experiment [1] (Homo sapiens, THP1-Dual, 20 h) came to 0.58 µM; in experiment [2] (Homo sapiens, THP1-Dual, 20 h) it was 0.56 µM.

`CC(C)OC(=O)c1cc(Cl)cc2cc(Cn3cnc4ccncc4c3=O)oc12` [EXAMPLE 262, Isopropyl 5-chloro-2-((4-oxopyrido[4,3-d]pyrimidin-3(4H)-yl)methyl)benzofuran-7-carboxylate]: the 50% effective concentration (EC50) in experiment [1] (Homo sapiens, THP1-Dual, 20 h) is 14 µM; in experiment [2] (Homo sapiens, THP1-Dual, 20 h), 18 µM.

For `C[C@H](NC(=O)c1cnn2cccnc12)c1oc2c(C(=O)O[C@H](C)C(F)(F)F)cc(F)cc2c1Cl` [EXAMPLE 293, (R)-1,1,1-Trifluoropropan-2-yl 3-chloro-5-fluoro-2-((S)-1-(pyrazolo[1,5-a]pyrimidine-3-carboxamido)ethyl)benzofuran-7-carboxylate], the EC50 in experiment [1] (Homo sapiens, THP1-Dual, 20 h) is 4.4 µM; in experiment [2] (Homo sapiens, THP1-Dual, 20 h), 3.8 µM.

In the case of `COC(=O)c1cc(Cl)cc2cc(CNC(=O)c3cncc4ncn(C)c34)oc12` [Example 70, Methyl 5-chloro-2-((1-methyl-1H-imidazo[4,5-c]pyridine-7-carboxamido)methyl)benzofuran-7-carboxylate], the EC50 is 24 µM in experiment [1] (Homo sapiens, THP1-Dual, 20 h) and > 100 µM in experiment [2] (Homo sapiens, THP1-Dual, 20 h).

Take `Cc1cc(C(=O)OC(CF)CF)c2oc(CNC(=O)c3cnn4cccnc34)cc2c1` [EXAMPLE 274, 1,3-Difluoropropan-2-yl 5-methyl-2-((pyrazolo[1,5-a]pyrimidine-3-carboxamido)methyl)-benzofuran-7-carboxylate]: the EC50 came out at 0.8 µM in experiment [1] (Homo sapiens, THP1-Dual, 20 h) and 0.83 µM in experiment [2] (Homo sapiens, THP1-Dual, 20 h).

As for `Cc1ccc(C(=O)OCC(F)(F)F)c2oc(Cn3ccc4ccncc4c3=O)cc12` [EXAMPLE 359], the EC50 was 3.8 µM in experiment [1] (Homo sapiens, THP1-Dual, 20 h) and 4 µM in experiment [2] (Homo sapiens, THP1-Dual, 20 h).

Consider `C=Cc1cc(C(=O)OC)c2oc(CNC(=O)c3cnn4cccnc34)cc2c1` [EXAMPLE 100, Methyl 2-((pyrazolo[1,5-a]pyrimidine-3-carboxamido)methyl)-5-vinylbenzofuran-7-carboxylate], for which the EC50 in experiment [1] (Homo sapiens, THP1-Dual, 20 h) is 2.5 µM; in experiment [2] (Homo sapiens, THP1-Dual, 20 h), 2.2 µM.

Regarding `COC(=O)c1c(F)c(F)cc2cc(CNC(=O)c3cnn4cccnc34)oc12` [EXAMPLE 126, Methyl 5,6-difluoro-2-((pyrazolo[1,5-a]pyrimidine-3-carboxamido)methyl)benzofuran-7-carboxylate], the EC50 worked out at 1.4 µM in experiment [1] (Homo sapiens, THP1-Dual, 20 h) and 1.6 µM in experiment [2] (Homo sapiens, THP1-Dual, 20 h).

With `CC(OC(=O)c1ccc(F)c2cc(CNC(=O)c3cnn4cccnc34)oc12)C(F)(F)F` (single isomer, unassigned) [EXAMPLE 310, 1,1,1-Trifluoropropan-2-yl 4-fluoro-2-((pyrazolo[1,5-a]pyrimidine-3-carboxamido)methyl)benzofuran-7-carboxylate], the concentration giving a half-maximal response (EC50) in experiment [1] was determined as 37 µM; in experiment [2], 56 µM.

Take `COC(=O)c1c(O)c(Cl)cc2cc(CNC(=O)c3cnn4cccnc34)oc12` [EXAMPLE 127, Methyl 5-chloro-6-hydroxy-2-((pyrazolo[1,5-a]pyrimidine-3-carboxamido)methyl)benzofuran-7-carboxylate]: the EC50 in experiment [1] (Homo sapiens, THP1-Dual, 20 h) was found to be 4.7 µM; in experiment [2] (Homo sapiens, THP1-Dual, 20 h) it was 5.6 µM.

Regarding `COC(=O)c1cccc2cc(CN3CCc4ccncc4C3=O)oc12` [EXAMPLE 5, Methyl 2-((1-oxo-3,4-dihydro-2,7-naphthyridin-2(1H)-yl)methyl)benzofuran-7-carboxylate], the EC50 worked out at 5.7 µM in experiment [1] (Homo sapiens, THP1-Dual, 20 h) and 6.3 µM in experiment [2] (Homo sapiens, THP1-Dual, 20 h).
